Reference: US20040224939A1, “Antibacterial agents” (priority 2003, published 2004)
Values after ≈ are worked out from the molar mass of the structure shown.

Legend:
[1] = test system: H. influenzae H13542; assay: Antibacterial assay (Test A), standard microtitration MIC, Gram negative; format: cell-based; details: Gram Negative Bacteria, strain H13542; for MIC: Haemophilus influenzae, read-out: Minimum Inhibitory Concentrations, H. influenzae H13542
Description: (§1) Test A—Antibacterial Assays
(§2) The compounds of the present invention were tested against an assortment of Gram-negative and Gram-positive organisms using standard microtitration techniques (Cohen et. al., Antimicrob., 1985;28:766; Heifetz, et. al., Antimicrob., 1974;6:124).

[2] = test system: E. coli Tol C; assay: as above; format: cell-based; details: for MIC: Escherichia coli, read-out: Minimum Inhibitory Concentrations, E. coli Tol C
Description: as §1, §2

[3] = test system: M. catarrhalis BC3534; assay: as above; format: cell-based; details: Gram Negative Bacteria, strain BC3534; for MIC: Moraxella catarrhalis, read-out: Minimum Inhibitory Concentrations, M. catarrhalis BC3534
Description: as §1, §2

[4] = test system: S pyogenes C203; assay: Antibacterial assay (Test A), standard microtitration MIC, Gram positive; format: cell-based; details: Gram Positive Bacteria, strain C203; for MIC: read-out: Minimum Inhibitory Concentrations, S pyogenes C203
Description: as §1, §2

[5] = test system: S. aureus UC-76; assay: as above; format: cell-based; details: Gram Positive Bacteria, strain UC-76; for MIC: Staphylococcus aureus, UC76, read-out: Minimum Inhibitory Concentrations, S. aureus UC-76
Description: as §1, §2

[6] = test system: E. faecalis MGH-2; assay: as above; format: cell-based; details: Gram Positive Bacteria, strain MGH-2; for MIC: Enterococcus faecalis, MGH2, read-out: Minimum Inhibitory Concentrations, E. faecalis MGH-2
Description: as §1, §2

[7] = test system: E. coli transcription and translation (TnT), E. coli S30 fraction; assay: E. coli transcription and translation (TnT) assay, cell free, luciferase luminescence;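 also: printed under a heading of minimum inhibitory concentration in µg/mL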; format: biochemical; details: cell free E. coli S30, firefly luciferase plasmid pBESTluc, 20 minutes at room temperature

| Molecule | MIC [1] | MIC [2] | MIC [3] | MIC [4] | MIC [5] | MIC [6] | Inhibitory concentration in E. coli cell-free transcription/translation assay [7] | Minimum Inhibitory Concentrations, H. influenzae H13542 [1] | Minimum Inhibitory Concentrations, E. coli Tol C ([2]; Gram Negative Bacteria, strain Tol C) | Minimum Inhibitory Concentrations, M. catarrhalis BC3534 [3] | Minimum Inhibitory Concentrations, S pyogenes C203 [4] | Minimum Inhibitory Concentrations, S. aureus UC-76 [5] | Minimum Inhibitory Concentrations, E. faecalis MGH-2 [6] |
| --- | --- | --- | --- | --- | --- | --- | --- | --- | --- | --- | --- | --- | --- |
| CC(=O)NC[C@H]1CN(c2ccc3c(c2)C=CCCC3)C(=O)O1 | > 64 µg/mL | > 64 µg/mL | 32 µg/mL (≈ 107 µM) | 2 µg/mL (≈ 6.66 µM) | 4 µg/mL (≈ 13.3 µM) | 4 µg/mL (≈ 13.3 µM) |  |  |  |  |  |  |  |
| CC(=O)NC[C@H]1CN(c2ccc3c(c2)CCN(C(=O)Cc2cccs2)CC3)C(=O)O1 | > 64 µg/mL | > 64 µg/mL | 16 µg/mL (≈ 37.4 µM) | 0.125 µg/mL (≈ 0.292 µM) | 0.25 µg/mL (≈ 0.585 µM) | 0.25 µg/mL (≈ 0.585 µM) | 2.3 µg/mL |  |  |  |  |  |  |
| CC(=O)NC[C@H]1CN(c2ccc3c(c2)CCCC(Cc2ccsc2)C3=O)C(=O)O1 (stereo partly shown) | 2 µg/mL (≈ 4.85 µM) | > 64 µg/mL | 1 µg/mL (≈ 2.42 µM) | 0.25 µg/mL (≈ 0.606 µM) | 0.25 µg/mL (≈ 0.606 µM) | 0.5 µg/mL (≈ 1.21 µM) | 0.84 µg/mL |  |  |  |  |  |  |
| COC(=O)C1CCCc2cc(N3C[C@H](CNC(C)=O)OC3=O)ccc2C1=O (stereo partly shown) | 32 µg/mL (≈ 85.5 µM) | > 64 µg/mL | 16 µg/mL (≈ 42.7 µM) | 4 µg/mL (≈ 10.7 µM) | 4 µg/mL (≈ 10.7 µM) | 2 µg/mL (≈ 5.34 µM) | 4.7 µg/mL |  |  |  |  |  |  |
| CC(=O)NCC1CN(c2ccc3c(c2)CCCCC3=O)C(=O)O1 (stereo not shown) [Example 2, N-[2-Oxo-3-(5-oxo-6,7,8,9-tetrahydro-5H-benzocyclohepten-2-yl)-oxazolidin-5-ylmethyl]-acetamide] | 8 µg/mL (≈ 25.3 µM) | > 64 µg/mL | 4 µg/mL (≈ 12.6 µM) | > 64 µg/mL | > 64 µg/mL | > 64 µg/mL | 3.9 µg/mL |  |  |  |  |  |  |
| CC(=O)NCC1CN(c2ccc3c(c2)CCC(=O)CC3)C(=O)O1 (stereo not shown) [Example 4, N-[2-Oxo-3-(7-oxo-6,7,8,9-tetrahydro-5H-benzocyclohepten-2-yl)-oxazolidin-5-ylmethyl]-acetamide] | 64 µg/mL (≈ 202 µM) | > 64 µg/mL | 32 µg/mL (≈ 101 µM) | 4 µg/mL (≈ 12.6 µM) | 4 µg/mL (≈ 12.6 µM) | 8 µg/mL (≈ 25.3 µM) | 8.2 µg/mL |  |  |  |  |  |  |
| CC(=O)NCC1CN(c2ccc3c(c2)CC(=O)CCC3)C(=O)O1 (stereo not shown) [Example 5, N-[2-Oxo-3-(8-oxo-6,7,8,9-tetrahydro-5H-benzocyclohepten-2-yl)-oxazolidin-5-ylmethyl]-acetamide] | 64 µg/mL (≈ 202 µM) | > 64 µg/mL | 64 µg/mL (≈ 202 µM) | 8 µg/mL (≈ 25.3 µM) | 8 µg/mL (≈ 25.3 µM) | 16 µg/mL (≈ 50.6 µM) | 2.3 µg/mL |  |  |  |  |  |  |
| CC(=O)NCC1CN(c2ccc3c(c2)C=CCCC3)C(=O)O1 (stereo not shown) [Example 6, N-[3-(6,7-dihydro-5H-benzocyclohepten-2-yl)-2-oxo-oxazolidin-5-ylmethyl]acetamide] | > 64 µg/mL | > 64 µg/mL | 32 µg/mL (≈ 107 µM) | 2 µg/mL (≈ 6.66 µM) | 4 µg/mL (≈ 13.3 µM) | 4 µg/mL (≈ 13.3 µM) | 15 µg/mL |  |  |  |  |  |  |
| CC(=O)NCC1CN(c2ccc3c(c2)CCCC(=O)C3)C(=O)O1 (stereo not shown) [Example 7, N-[2-Oxo-3-(6-oxo-6,7,8,9-tetrahydro-5H-benzocyclohepten-2-yl)-oxazolidin-5-ylmethyl]-acetamide] | 32 µg/mL (≈ 101 µM) | > 64 µg/mL | 32 µg/mL (≈ 101 µM) | 2 µg/mL (≈ 6.32 µM) | 4 µg/mL (≈ 12.6 µM) | 4 µg/mL (≈ 12.6 µM) | 12 µg/mL |  |  |  |  |  |  |
| CC(=O)NCC1CN(c2ccc3c(c2)OCCCC3=O)C(=O)O1 (stereo not shown) [Example 12, N-[2-Oxo-3-(5-oxo-2,3,4,5-tetrahydro-benzo[b]oxepin-8-yl)-oxazolidin-5-ylmethyl]-acetamide] | 32 µg/mL (≈ 101 µM) | > 64 µg/mL | 16 µg/mL (≈ 50.3 µM) | 2 µg/mL (≈ 6.28 µM) | 8 µg/mL (≈ 25.1 µM) | 4 µg/mL (≈ 12.6 µM) | 1.1 µg/mL |  |  |  |  |  |  |
| CC(=O)NCC1CN(c2ccc3c(c2)CCCCN3)C(=O)O1 (stereo not shown) [Example 14, N-[2-Oxo-3-(2,3,4,5-tetrahydro-1H-benzo[b]azepin-7-yl)-oxazolidin-5-ylmethyl]-acetamide] | 64 µg/mL (≈ 211 µM) | > 64 µg/mL | > 64 µg/mL | 16 µg/mL (≈ 52.7 µM) | 32 µg/mL (≈ 105 µM) | 64 µg/mL (≈ 211 µM) |  |  |  |  |  |  |  |
| CC(=O)NC[C@H]1CN(c2ccc3c(c2)CCCCC3)C(=O)O1 [drawing 69] | > 64 µg/mL | > 64 µg/mL | 16 µg/mL (≈ 52.9 µM) | 2 µg/mL (≈ 6.61 µM) | 2 µg/mL (≈ 6.61 µM) | 4 µg/mL (≈ 13.2 µM) |  |  |  |  |  |  |  |
| CC(=O)NC[C@H]1CN(c2ccc3c(c2)CCCCC3)C(=O)O1 [drawing 70] |  |  |  |  |  |  | 6.6 µg/mL |  |  |  |  |  |  |
| CC(=O)NC[C@H]1CN(c2ccc3c(c2)CCC/C(=C\c2ccc(F)cc2)C3=O)C(=O)O1 [drawing 72] | 2 µg/mL (≈ 4.73 µM) | > 64 µg/mL | 1 µg/mL (≈ 2.37 µM) |  |  |  | 1.4 µg/mL |  |  |  |  |  |  |
| CC(=O)NC[C@H]1CN(c2ccc3c(c2)CCC/C(=C\c2ccncc2)C3=O)C(=O)O1 [drawing 72] |  |  |  | 1 µg/mL (≈ 2.47 µM) | 1 µg/mL (≈ 2.47 µM) | 1 µg/mL (≈ 2.47 µM) |  |  |  |  |  |  |  |
| CC(=O)NC[C@H]1CN(c2ccc3c(c2)CCC/C(=C\c2ccc(F)cc2)C3=O)C(=O)O1 [drawing 73] |  |  |  | 0.5 µg/mL (≈ 1.18 µM) | 0.5 µg/mL (≈ 1.18 µM) | 0.5 µg/mL (≈ 1.18 µM) |  |  |  |  |  |  |  |
| CC(=O)NC[C@H]1CN(c2ccc3c(c2)CCC/C(=C\c2ccncc2)C3=O)C(=O)O1 [drawing 73] | 16 µg/mL (≈ 39.5 µM) | > 64 µg/mL | 8 µg/mL (≈ 19.7 µM) |  |  |  | 2.7 µg/mL |  |  |  |  |  |  |
| N-[2-Oxo-3-(2,3,4,5-tetrahydro-1H-benzo [c] azepin-7-yl)-oxazolidin-5-ylmethyl]-acetamide and N-[2-Oxo-3-(2,3,4,5-tetrahydro-1H-benzo[d]azepin-7-yl)-oxazolidin-5-ylmethyl]-acetamide [Example 15] |  |  |  |  |  |  | 11 µg/mL | >64 µg/mL | >64 µg/mL | >64 µg/mL | 64 µg/mL | 64 µg/mL | 64 µg/mL |
